Key:
human orexin-2 receptor = target: T1, human orexin-2 receptor (Homo sapiens, UniProt O43614); experiment: FLIPR Ca2+ flux assay, OX2R; format: cell-based; conditions: for IC50: CHO cells expressing the human orexin-2 receptor, agonist 70 pM Ala-6,12 orexin-A; for Fold Selective: OX1R FLIPR / OX2R FLIPR
T1 construct: expressed in transfected cells; host or cells: CHO cells (grown under G418 selection)
T1 sequence (O43614 1-444): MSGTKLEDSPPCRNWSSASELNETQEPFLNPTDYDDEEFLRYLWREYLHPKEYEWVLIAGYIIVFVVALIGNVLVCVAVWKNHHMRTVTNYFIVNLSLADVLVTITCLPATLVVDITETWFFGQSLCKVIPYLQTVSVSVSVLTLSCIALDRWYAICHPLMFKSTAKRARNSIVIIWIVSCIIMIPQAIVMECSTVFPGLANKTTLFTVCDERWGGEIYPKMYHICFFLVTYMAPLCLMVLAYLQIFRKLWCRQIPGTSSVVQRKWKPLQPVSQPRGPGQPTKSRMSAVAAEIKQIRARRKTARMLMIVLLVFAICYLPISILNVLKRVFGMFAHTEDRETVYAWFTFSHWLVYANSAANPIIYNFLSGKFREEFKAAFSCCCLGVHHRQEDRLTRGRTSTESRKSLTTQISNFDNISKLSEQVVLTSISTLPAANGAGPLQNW
Experimental: (§1) The utility of the compounds in accordance with the present invention as orexin receptor OX1R and/or OX2R antagonists may be readily determined without undue experimentation by methodology well known in the art, including the “FLIPR Ca^2+ Flux Assay” (Okumura et al., Biochem. Biophys. Res. Comm. 280:976-981, 2001). In a typical experiment the OX1 and OX2 receptor antagonistic activity of the compounds of the present invention was determined in accordance with the following experimental method. For intracellular calcium measurements, Chinese hamster ovary (CHO) cells expressing the rat orexin-1 receptor or the human orexin-2 receptor, are grown in Iscove's modified DMEM containing 2 mM L-glutamine, […], 1% hypoxanthine-thymidine supplement, 100 U/ml penicillin, 100 μg/ml streptomycin and 10% heat-inactivated fetal calf serum (FCS). The cells are seeded at 20,000 cells/well into Becton-Dickinson black 384-well clear bottom sterile plates coated with poly-D-lysine. All reagents were from GIBCO-Invitrogen Corp. The seeded plates are incubated overnight at 37° C. and 5% CO2. Ala-6,12 human orexin-A as the agonist is prepared as a 1 mM stock solution in 1% bovine serum albumin (BSA) and diluted in assay buffer (HBSS containing 20 mM HEPES, 0.1% BSA and 2.5 mM probenecid, pH7.4) for use in the assay at a final concentration of 70 pM. Test compounds are prepared as 10 mM stock solution in DMSO, then diluted in 384-well plates, first in DMSO, then assay buffer. On the day of the assay, cells are washed 3 times with 100 μl assay buffer and then incubated for 60 min (37° C., 5% CO2) in 60 μl assay buffer containing 1 μM Fluo-4AM ester, 0.02% pluronic acid, and 1% BSA. The dye loading solution is then aspirated and cells are washed 3 times with 100 μl assay buffer. 30 μl of that same buffer is left in each well. Within the Fluorescent Imaging Plate Reader (FLIPR, Molecular Devices), test compounds are added to the plate in a volume of 25 μl, incubated for 5 min and finally 25 μl of agonist is added. Fluorescence is measured for each well at 1 second intervals for 5 minutes and the height of each fluorescence peak is compared to the height of the fluorescence peak induced by 70 pM Ala-6,12 orexin-A with buffer in place of antagonist. For each antagonist, IC50 value (the concentration of compound needed to inhibit 50% of the agonist response) is determined. Alternatively, compound potency can be assessed by a radioligand binding assay (described in Bergman et. al. Bioorg. Med. Chem. Lett. 2008, 18, 1425-1430) in which the inhibition constant (Ki) is determined in membranes prepared from CHO cells expressing either the OX1 or OX2 receptor. The intrinsic orexin receptor antagonist activity of a compound which may be used in the present invention may be determined by these assays.

rat orexin-1 receptor = target: T2, rat orexin-1 receptor (Rattus norvegicus, UniProt P56718); experiment: FLIPR Ca2+ flux assay, OX1R; format: cell-based; conditions: CHO cells expressing the rat orexin-1 receptor; agonist 70 pM Ala-6,12 orexin-A
T2 construct: expressed in transfected cells; host or cells: CHO cells (grown under G418 selection)
T2 sequence (P56718 1-416): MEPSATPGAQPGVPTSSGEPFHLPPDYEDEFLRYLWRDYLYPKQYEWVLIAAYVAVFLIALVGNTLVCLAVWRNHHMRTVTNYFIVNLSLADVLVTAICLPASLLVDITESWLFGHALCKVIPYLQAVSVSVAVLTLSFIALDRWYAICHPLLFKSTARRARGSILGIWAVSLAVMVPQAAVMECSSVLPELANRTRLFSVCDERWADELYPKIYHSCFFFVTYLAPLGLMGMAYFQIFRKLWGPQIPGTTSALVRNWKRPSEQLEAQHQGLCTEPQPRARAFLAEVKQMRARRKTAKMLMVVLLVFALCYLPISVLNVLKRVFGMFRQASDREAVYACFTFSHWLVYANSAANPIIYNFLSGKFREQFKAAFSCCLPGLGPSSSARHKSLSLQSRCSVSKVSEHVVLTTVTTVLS
Experimental: as §1

Row | IC50 (human orexin-2 receptor) [µM] | Fold Selective (human orexin-2 receptor) | IC50 (rat orexin-1 receptor) [µM] | Structure (SMILES)
1 | 0.015 | 139 | 2.09 | Cc1cc(C)nc(N2CC3CC2CN(C(=O)c2ccccc2CC(F)F)C3)n1 (stereo not drawn) [Example 36, 3-{[2-(2,2-difluoroethyl)phenyl]carbonyl}-6-(4,6-dimethylpyrimidin-2-yl)-3,6-diazabicyclo[3.2.1]octane]
2 | 0.012 | 49 | 0.584 | Cc1cc(C)nc(N2CC3CC2CN(C(=O)c2cccnc2OCC2CC2(F)F)C3)n1 (stereo not drawn) [Example 41, 3-({2-[(2,2-difluorocyclopropyl)methoxy]pyridin-3-yl}carbonyl)-6-(4,6-dimethylpyrimidin-2-yl)-3,6-diazabicyclo[3.2.1]octane]
3 | 0.033 | 117 | 3.86 | Cc1cc(C)nc(N2CC3CC2CN(C(=O)c2nccnc2OCC(F)F)C3)n1 (stereo not drawn) [Example 49, 3-{[3-[2,2-difluoroethoxy)pyrazin-2-yl]carbonyl}-6-(4,6-dimethylpyrimidin-2-yl)-3,6-diazabicyclo[3.2.1]octane]
4 | 0.117 | >85 | > 10 | COc1ccc(C(=O)N2CC3CC(C2)N(c2nc(C)cc(C)n2)C3)c(-n2nccn2)n1 (stereo not drawn) [Example 30, 6-(4,6-dimethylpyrimidin-2-yl)-3-{[6-methoxy-2-(2H-1,2,3-triazol-2-yl)pyridin-3-yl]carbonyl}-3,6-diazabicyclo[3.2.1]octane]
5 | 0.09 | >111 | > 10 | Cc1cc(C)nc(N2CC3CC2CN(C(=O)c2cccnc2-n2nccn2)C3)n1 (stereo not drawn) [Example 31, 6-(4,6-dimethylpyrimidin-2-yl)-3-{[2-(2H-1,2,3-triazol-2-yl)pyridin-3-yl]carbonyl}-3,6-diazabicyclo[3.2.1]octane]
6 | 0.039 | 165 | 6.45 | Cc1cc(C)nc(N2CC3CC2CN(C(=O)c2nccnc2OCC(C)(F)F)C3)n1 (stereo not drawn) [Example 53, (3-(2,2-difluoropropoxy)pyrazin-2-yl)(6-(4,6-dimethylpyrimidin-2-yl)-3,6-diazabicyclo[3.2.1]octan-3-yl)methanone]
7 | 0.016 | 41 | 0.648 | Cc1cc(C)nc(N2CC3CC2CN(C(=O)c2cccnc2OCC(C)C)C3)n1 (stereo not drawn) [Example 40, 6-(4,6-dimethyl-pyrimidin-2-yl)-3-{[2-(2-methylpropoxy)pyridin-3-yl]carbonyl}-3,6-diazabicyclo[3.2.1]octane]
8 | 0.024 | 112 | 2.68 | Cc1cc(C)nc(N2CC3CC2CN(C(=O)c2ccccc2OC(F)F)C3)n1 (stereo not drawn) [Example 34, 3-{[2-(difluoromethoxy)phenyl]carbonyl}-6-(4,6-dimethylpyrimidin-2-yl)-3,6-diazabicyclo[3.2.1]octane]

The remaining lines, values behind:

Row | Structure (SMILES) | IC50 (human orexin-2 receptor) [µM] | Fold Selective (human orexin-2 receptor) | IC50 (rat orexin-1 receptor) [µM]
9 | Cc1cc(C#N)nc(N2CC3CC2CN(C(=O)c2cccnc2C2CC2)C3)n1 (stereo not drawn) [Example 5, 2-(3-(2-cyclopropylnicotinoyl)-3,6-diazabicyclo[3.2.1]octan-6-yl)-6-methylpyrimidine-4-carbonitrile] | 0.081 | >123 | > 10
10 | COc1ccc(C(=O)N2CC3CC(C2)N(c2nc(C)cc(C)n2)C3)c(C2CC2)n1 (stereo not drawn) [Example 13, 3-[(2-cyclopropyl-6-methoxypyridin-3-yl)carbonyl]-6-(4,6-dimethylpyrimidin-2-yl)-3,6-diazabicyclo[3.2.1]octane] | 0.041 | 87 | 3.55
11 | Cc1cc(C#N)nc(N2CC3CC2CN(C(=O)c2ccccc2OC(F)F)C3)n1 (stereo not drawn) [Example 2, 2-(3-(2-(difluoromethoxy)benzoyl)-3,6-diazabicyclo[3.2.1]-octan-6-yl)-6-methylpyrimidine-4-carbonitrile] | 0.046 | >217 | > 10
12 | Cc1cc(C)nc(N2CC3CC2CN(C(=O)c2nccnc2-n2cccn2)C3)n1 (stereo not drawn) [Example 20, 6-(4,6-dimethylpyrimidin-2-yl)-3-{[3-(1H-pyrazol-1-yl)pyrazin-2-yl]carbonyl}-3,6-diazabicyclo[3.2.1]octane] | 0.05 | 68 | 3.4
13 | Cc1cc(C#N)nc(N2CC3CC2CN(C(=O)c2ccccc2OCC(F)(F)F)C3)n1 (stereo not drawn) [Example 3, 6-methyl-2-(3-(2-(2,2,2-trifluoroethoxy)benzoyl)-3,6-diazabicyclo[3.2.1]octan-6-yl)pyrimidine-4-carbonitrile] | 0.018 | 178 | 3.21
14 | Cc1cc(C#N)nc(N2CC3CC2CN(C(=O)c2cccnc2OCC(F)F)C3)n1 (stereo not drawn) [Example 4, 2-(3-{[2-(2,2-difluoroethoxy)pyridin-3-yl]carbonyl}-3,6-diazabicyclo[3.2.1]oct-6-yl)-6-methylpyrimidine-4-carbonitrile] | 0.019 | 174 | 3.3
15 | Cc1cc(C)nc(N2CC3CC2CN(C(=O)c2cccc(F)c2C2CC2)C3)n1 (stereo not drawn) [Example 24, (2-cyclopropyl-3-fluorophenyl)(6-(4,6-dimethylpyrimidin-2-yl)-3,6-diazabicyclo[3.2.1]octan-3-yl)methanone] | 0.017 | 44 | 0.743
16 | CCCc1ccccc1C(=O)N1CC2CC(C1)N(c1nc(C)cc(C)n1)C2 (stereo not drawn) [Example 27, 6-(4,6-dimethylpyrimidin-2-yl)-3-[(2-propylphenyl)carbonyl]-3,6-diazabicyclo[3.2.1]octane] | 0.014 | 84 | 1.18
17 | Cc1cc(C#N)nc(N2CC3CC2CN(C(=O)c2ccccc2CC(F)(F)F)C3)n1 (stereo not drawn) [Example 1, 6-methyl-2-(3-(2-(2,2,2-trifluoroethyl)benzoyl)-3,6-diazabicyclo[3.2.1]octan-6-yl)pyrimidine-4-carbonitrile] | 0.023 | 81 | 1.87
18 | Cc1cc(C)nc(N2CC3CC2CN(C(=O)c2ccc(F)cc2C2CC2)C3)n1 (stereo not drawn) [Example 14, 3-[(2-cyclopropyl-4-fluorophenyl)carbonyl]-6-(4,6-dimethylpyrimidin-2-yl)-3,6-diazabicyclo[3.2.1]octane] | 0.026 | 56 | 1.45
19 | Cc1cc(C)nc(N2CC3CC2CN(C(=O)c2cc(F)ccc2C2CC2)C3)n1 (stereo not drawn) [Example 12, 3-[(2-cyclopropyl-5-fluorophenyl)carbonyl]-6-(4,6-dimethylpyrimidin-2-yl)-3,6-diazabicyclo[3.2.1]octane] | 0.022 | 47 | 1.03
20 | Cc1cc(C)nc(N2CC3CC2CN(C(=O)c2ccccc2OCC(F)(F)F)C3)n1 (stereo not drawn) [Example 26, 6-(4,6-dimethylpyrimidin-2-yl)-3-{[2-(2,2,2-trifluoroethoxy)-phenyl]carbonyl}-3,6-diazabicyclo[3.2.1]octane] | 0.01 | 114 | 1.14

Source: US9994570B2, “Bridged diazepane orexin receptor antagonists” (MERCK SHARP & DOHME CORP., priority 2014, dated 2018)
